Test results: ChEMBL document CHEMBL6092162, “Identification of novel and potent triazoles targeting CYP51 for antifungal: Design, synthesis, and biological study” (Eur J Med Chem, 2024)
≈ marks a conversion by molar mass, not a printed value. Calls of active or inactive are those of the source. The calls are words filed in the database; no cut-off is given here.

Assays:
[1] = test system: Candida albicans; assay: Antifungal activity against Candida albicans SC5314 assessed as inhibition of fungal growth by CLSI M27-A3 guidelines based method; type: functional
[2] = test system: Candida albicans; assay: Antifungal activity against Candida albicans GIM 2.194 assessed as inhibition of fungal growth by CLSI M27-A3 guidelines based method; type: functional
[3] = test system: Candida tropicalis; assay: Antifungal activity against Candida tropicalis GIM 2.183 assessed as inhibition of fungal growth by CLSI M27-A3 guidelines based method; type: functional
[4] = test system: Candida parapsilosis; assay: Antifungal activity against Candida parapsilosis GIM 2.190 assessed as inhibition of fungal growth by CLSI M27-A3 guidelines based method; type: functional; conditions: Lodderomyces parapsilosis
[5] = test system: Nakaseomyces glabratus; assay: Antifungal activity against Candida glabrata assessed as inhibition of fungal growth by CLSI M27-A3 guidelines based method; type: functional
[6] = test system: Pichia kudriavzevii; assay: Antifungal activity against Candida krusei GIM 2.1 assessed as inhibition of fungal growth by CLSI M27-A3 guidelines based method; type: functional
[7] = test system: Cryptococcus neoformans; assay: Antifungal activity against Cryptococcus neoformans CGMCC 2.3161 assessed as inhibition of fungal growth by CLSI M27-A3 guidelines based method; type: functional
[8] = test system: Candida albicans; assay: Antifungal activity against fluconazole and iodiconazole resistant Candida albicans clinical isolate 17# assessed as inhibition of fungal growth by CLSI M27-A3 guidelines based method; type: functional
[9] = test system: Candida albicans; assay: Antifungal activity against fluconazole-resistant Candida albicans CaR assessed as inhibition of fungal growth by CLSI M27-A3 guidelines based method; type: functional
[10] = test system: Candida albicans; assay: Antifungal activity against fluconazole-resistant Candida albicans clinical isolate 901 assessed as inhibition of fungal growth by CLSI M27-A3 guidelines based method; type: functional
[11] = test system: Candida albicans; assay: Antifungal activity against fluconazole-resistant Candida albicans clinical isolate 904 assessed as inhibition of fungal growth by CLSI M27-A3 guidelines based method; type: functional
[12] = test system: Candida albicans; assay: Antifungal activity against fluconazole-resistant Candida albicans clinical isolate 632 assessed as inhibition of fungal growth by CLSI M27-A3 guidelines based method; type: functional
[13] = test system: Candida albicans; assay: Antifungal activity against fluconazole-resistant Candida albicans clinical isolate 100 assessed as inhibition of fungal growth by CLSI M27-A3 guidelines based method; type: functional
[14] = test system: Candida albicans; assay: Antifungal activity against fluconazole-resistant Candida albicans clinical isolate 103 assessed as inhibition of fungal growth by CLSI M27-A3 guidelines based method; type: functional
[15] = test system: Candida albicans; assay: Antifungal activity against fluconazole-resistant Candida albicans clinical isolate 311 assessed as inhibition of fungal growth by CLSI M27-A3 guidelines based method; type: functional
[16] = test system: Candida albicans; assay: Fungicidal activity against Candida albicans SC5314 incubated for 48 hrs by SDA plate based method; type: functional
[17] = test system: Candida albicans; assay: Selectivity ratio of MFC for fungicidal activity against Candida albicans SC5314 to MIC80 for antifungal activity against Candida albicans SC5314; type: functional
[18] = test system: Candida albicans; assay: Fungicidal activity against fluconazole and iodiconazole resistant Candida albicans clinical isolate 17# incubated for 48 hrs by SDA plate based method; type: functional
[19] = test system: Candida albicans; assay: Selectivity ratio of MFC for fungicidal activity against fluconazole and iodiconazole resistant Candida albicans clinical isolate 17# to MIC80 for antifungal activity against fluconazole and iodiconazole resistant Candida albicans clinical isolate 17#; type: functional
[20] = test system: Candida albicans; assay: Antibiofilm activity against fluconazole-resistant Candida albicans CPCC400616 assessed as inhibition of metabolic activity of biofilm measured after 6 hrs by XTT reduction assay; type: functional
[21] = test system: Candida albicans; assay: Antibiofilm activity against fluconazole-resistant Candida albicans CPCC400616 assessed as inhibition of metabolic activity of biofilm measured after 24 hrs by XTT reduction assay; type: functional
[22] = test system: Candida albicans; assay: Antibiofilm activity against fluconazole-resistant Candida albicans CPCC400616 assessed as inhibition of metabolic activity of biofilm measured after 48 hrs by XTT reduction assay; type: functional
[23] = Cytotoxicity against HEK293T cells assessed as inhibition of cell growth incubated for 72 hrs by MTT assay; type: toxicity, cell-based, HEK-293T; conditions: human
[24] = Cytotoxicity against human NCI-H460 cells assessed as inhibition of cell growth incubated for 72 hrs by MTT assay; type: toxicity, cell-based
[25] = Cytotoxicity against human OVCAR-3 cells assessed as inhibition of cell growth incubated for 72 hrs by MTT assay; type: toxicity, cell-based
[26] = Cytotoxicity against HUVEC cells assessed as inhibition of cell growth incubated for 72 hrs by MTT assay; type: toxicity, cell-based; conditions: human
[27] = test system: Candida albicans; assay: Antibiofilm activity against Candida albicans CPCC400616 assessed as inhibition of morphological transformation by measuring disappearance of mycelium at 2 microg/ml incubated for 4 hrs by microscopic photograph analysis; type: functional, organism-based; conditions: dose 2.0 µg/ml
[28] = test system: Candida albicans; assay: Effect on sterol composition in Candida albicans SC5314 assessed as ergosterol content at 1 microg/ml measured after 16 hrs by GC-MS analysis (reference value: 96.96 %); type: functional; conditions: dose 1 µg/ml
[29] = test system: Candida albicans; assay: Effect on sterol composition in Candida albicans SC5314 assessed as 14alpha-demethyllanosterol content at 1 microg/ml measured after 16 hrs by GC-MS analysis (reference value: 1.98 %); type: functional; conditions: dose 1 µg/ml
[30] = test system: Candida albicans; assay: Effect on sterol composition in Candida albicans SC5314 assessed as obtusifoliol content at 1 microg/ml measured after 16 hrs by GC-MS analysis relative to control; type: functional; conditions: dose 1 µg/ml
[31] = test system: Candida albicans; assay: Effect on sterol composition in Candida albicans SC5314 assessed as lanosterol content at 1 microg/ml measured after 16 hrs by GC-MS analysis relative to control; type: functional; conditions: dose 1 µg/ml
[32] = test system: Candida albicans; assay: Effect on sterol composition in Candida albicans SC5314 assessed as eburicol content at 1 microg/ml measured after 16 hrs by GC-MS analysis relative to control; type: functional; conditions: dose 1 µg/ml
[33] = test system: Candida albicans; assay: Effect on sterol composition in Candida albicans SC5314 assessed as other sterols content at 1 microg/ml measured after 16 hrs by GC-MS analysis (reference value: 1.06 %); type: functional; conditions: dose 1 µg/ml

SMILES | MIC80 [1] [µg/mL] | MIC80 [2] [µg/mL] | MIC80 [3] [µg/mL] | MIC80 [4] [µg/mL] | MIC80 [5] [µg/mL] | MIC80 [6] [µg/mL] | MIC80 [7] [µg/mL] | MIC80 [8] [µg/mL] | MIC80 [9] [µg/mL] | MIC80 [10] [µg/mL] | MIC80 [11] [µg/mL] | MIC80 [12] [µg/mL] | MIC80 [13] [µg/mL] | MIC80 [14] [µg/mL] | MIC80 [15] [µg/mL] | further results
CN(Cc1ccc(I)cc1)CC(O)(Cn1cncn1)c1ccc(F)cc1F (stereo unspecified) | 0.013 (≈ 0.0268 µM) | 0.025 (≈ 0.0516 µM) | 0.013 (≈ 0.0268 µM) | 0.025 (≈ 0.0516 µM) | 0.2 (≈ 0.413 µM) | 0.2 (≈ 0.413 µM) | 0.1 (≈ 0.206 µM) | 0.25 (≈ 0.516 µM) | 2 (≈ 4.13 µM) | > 64 | 8 (≈ 16.5 µM) | 16 (≈ 33 µM) | 2 (≈ 4.13 µM) | 32 (≈ 66.1 µM) | > 64 | MFC [16]: 32 µg/mL (≈ 66.1 µM); Selectivity ratio [17]: >256; MFC [18]: 32 µg/mL (≈ 66.1 µM); Selectivity ratio [19]: 128; MIC50 [20]: 8 µg/mL (≈ 16.5 µM); MIC50 [21]: 16 µg/mL (≈ 33 µM); MIC50 [22]: > 32 µg/mL; IC50 at 72 h [23]: > 10 µM; IC50 at 72 h [24]: > 10 µM; IC50 at 72 h [25]: > 10 µM; IC50 at 72 h [26]: > 10 µM; Activity [27]: Active
CN(Cc1ccc(N2CCN(Cc3ccc(Cl)cc3Br)CC2)cc1)CC(O)(Cn1cncn1)c1ccc(F)cc1F (stereo unspecified) | 0.006 (≈ 0.00929 µM) | 0.006 (≈ 0.00929 µM) | 0.006 (≈ 0.00929 µM) | 0.006 (≈ 0.00929 µM) |  |  |  | 1 (≈ 1.55 µM) | 0.125 (≈ 0.194 µM) | > 64 | 32 (≈ 49.5 µM) | 32 (≈ 49.5 µM) | 8 (≈ 12.4 µM) | > 64 | > 64 | 
OC(Cn1cncn1)(Cn1cncn1)c1ccc(F)cc1F [FLUCONAZOLE] | 0.25 (≈ 0.816 µM) | 0.5 (≈ 1.63 µM) | 0.25 (≈ 0.816 µM) | 1 (≈ 3.27 µM) | 8 (≈ 26.1 µM) | 8 (≈ 26.1 µM) | 4 (≈ 13.1 µM) | > 64 | > 64 | > 64 | > 64 | > 64 | > 64 | > 64 | > 64 | MFC [16]: > 64 µg/mL; MFC [18]: > 64 µg/mL; Activity [28]: 4.57%; Activity [29]: 3.03%; Activity [30]: 14.37%; Activity [31]: 9.3%; Activity [32]: 60.09%; Activity [33]: 8.64%; MIC50 [20]: 16 µg/mL (≈ 52.2 µM); MIC50 [21]: > 32 µg/mL; MIC50 [22]: > 32 µg/mL; IC50 at 72 h [23]: > 40 µM; IC50 at 72 h [24]: > 40 µM; IC50 at 72 h [25]: > 40 µM; IC50 at 72 h [26]: > 40 µM; Activity [27]: Not active; Oval Shaped Yeast Phase Fungi Observed
CN(Cc1ccc(N2CCN(Cc3ccccc3Br)CC2)cc1)CC(O)(Cn1cncn1)c1ccc(F)cc1F (stereo unspecified) | 0.013 (≈ 0.0213 µM) | 0.006 (≈ 0.00981 µM) | 0.013 (≈ 0.0213 µM) | 0.006 (≈ 0.00981 µM) | 0.1 (≈ 0.164 µM) | 0.1 (≈ 0.164 µM) |  | 0.063 (≈ 0.103 µM) | 0.063 (≈ 0.103 µM) | > 64 | 16 (≈ 26.2 µM) | 8 (≈ 13.1 µM) | 4 (≈ 6.54 µM) | 16 (≈ 26.2 µM) | 32 (≈ 52.3 µM) | 
CN(Cc1ccc(N2CCN(Cc3ccc(C(F)(F)F)cc3)CC2)cc1)CC(O)(Cn1cncn1)c1ccc(F)cc1F (stereo unspecified) | 0.013 (≈ 0.0216 µM) | 0.013 (≈ 0.0216 µM) | 0.013 (≈ 0.0216 µM) | 0.013 (≈ 0.0216 µM) | 0.1 (≈ 0.166 µM) |  | 0.1 (≈ 0.166 µM) | 0.125 (≈ 0.208 µM) | 0.063 (≈ 0.105 µM) | > 64 | 32 (≈ 53.3 µM) | 16 (≈ 26.6 µM) | 8 (≈ 13.3 µM) | 32 (≈ 53.3 µM) | 32 (≈ 53.3 µM) | 
CN(Cc1ccc(N2CCN(Cc3cc(F)ccc3Br)CC2)cc1)CC(O)(Cn1cncn1)c1ccc(F)cc1F (stereo unspecified) | 0.013 (≈ 0.0207 µM) | 0.025 (≈ 0.0397 µM) | 0.006 (≈ 0.00953 µM) | 0.006 (≈ 0.00953 µM) | 0.1 (≈ 0.159 µM) | 0.1 (≈ 0.159 µM) |  | 0.25 (≈ 0.397 µM) | 0.063 (≈ 0.1 µM) | > 64 | 8 (≈ 12.7 µM) | 16 (≈ 25.4 µM) | 2 (≈ 3.18 µM) | 8 (≈ 12.7 µM) | 32 (≈ 50.8 µM) | 
CN(Cc1ccc(N2CCN(Cc3ccc(C(C)(C)C)cc3)CC2)cc1)CC(O)(Cn1cncn1)c1ccc(F)cc1F (stereo unspecified) | 0.013 (≈ 0.0221 µM) | 0.006 (≈ 0.0102 µM) | 0.013 (≈ 0.0221 µM) | 0.006 (≈ 0.0102 µM) | 0.1 (≈ 0.17 µM) |  | 0.1 (≈ 0.17 µM) | 0.125 (≈ 0.212 µM) | 0.063 (≈ 0.107 µM) | > 64 | 32 (≈ 54.4 µM) | 16 (≈ 27.2 µM) | 8 (≈ 13.6 µM) | 8 (≈ 13.6 µM) | 8 (≈ 13.6 µM) | 
CN(Cc1ccc(N2CCN(Cc3ccc(OC(F)(F)F)cc3)CC2)cc1)CC(O)(Cn1cncn1)c1ccc(F)cc1F (stereo unspecified) | 0.013 (≈ 0.0211 µM) | 0.013 (≈ 0.0211 µM) | 0.006 (≈ 0.00973 µM) | 0.025 (≈ 0.0405 µM) | 0.1 (≈ 0.162 µM) | 0.1 (≈ 0.162 µM) | 0.1 (≈ 0.162 µM) | 0.125 (≈ 0.203 µM) | 0.063 (≈ 0.102 µM) | > 64 | 32 (≈ 51.9 µM) | 32 (≈ 51.9 µM) | 8 (≈ 13 µM) | 32 (≈ 51.9 µM) | > 64 | 
CN(Cc1ccc(N2CCN(Cc3cccc(Br)c3)CC2)cc1)CC(O)(Cn1cncn1)c1ccc(F)cc1F (stereo unspecified) | 0.013 (≈ 0.0213 µM) | 0.013 (≈ 0.0213 µM) | 0.013 (≈ 0.0213 µM) | 0.006 (≈ 0.00981 µM) | 0.2 (≈ 0.327 µM) | 0.1 (≈ 0.164 µM) | 0.1 (≈ 0.164 µM) | 0.063 (≈ 0.103 µM) | 0.063 (≈ 0.103 µM) | > 64 | 16 (≈ 26.2 µM) | 8 (≈ 13.1 µM) | 8 (≈ 13.1 µM) | 32 (≈ 52.3 µM) | 32 (≈ 52.3 µM) | 
